Data: patent US10988523B2, “Modified lipidated Relaxin B chain peptides and their therapeutic use” (Sanofi, priority 2018, dated 2021)
*1 amine or outer side, *2 acyl side, *3 side chain or, on linkers, in order; H or OH if unused. Where a SMILES comes first, the peptide text is derived from it. Side-chain parts run from the residue outwards. [ ]: non-standard residue; d: D form. The star is where a group is joined. PEG12 = NCCOCCOCCOCCOCCOCCOCCOCCOCCOCCOCCOCCOCCC(=O)O; Docosanoyl = CCCCCCCCCCCCCCCCCCCCCC(=O)*; γGlu = O=C(O)[C@H](CCC(=O)[*:2])N[*:1]; Stearoyl = CCCCCCCCCCCCCCCCCC(=O)*; Palmitoyl = CCCCCCCCCCCCCCCC(=O)*; αMeF = C[C@](N)(Cc1ccccc1)C(=O)O; αMeK = C[C@](N)(CCCCN)C(=O)O; Nle = CCCC[C@H](N)C(=O)O; AEEA = NCCOCCOCC(=O)O; Aib = CC(C)(N)C(=O)O

Molecular target: T1, RXFP1 (Homo sapiens, UniProt Q9HBX9)
T1 construct: OVCAR5 cells expressing endogenous RXFP1; endogenous in cells; host or cells: OVCAR5 cells
T1 sequence (Q9HBX9 1-757): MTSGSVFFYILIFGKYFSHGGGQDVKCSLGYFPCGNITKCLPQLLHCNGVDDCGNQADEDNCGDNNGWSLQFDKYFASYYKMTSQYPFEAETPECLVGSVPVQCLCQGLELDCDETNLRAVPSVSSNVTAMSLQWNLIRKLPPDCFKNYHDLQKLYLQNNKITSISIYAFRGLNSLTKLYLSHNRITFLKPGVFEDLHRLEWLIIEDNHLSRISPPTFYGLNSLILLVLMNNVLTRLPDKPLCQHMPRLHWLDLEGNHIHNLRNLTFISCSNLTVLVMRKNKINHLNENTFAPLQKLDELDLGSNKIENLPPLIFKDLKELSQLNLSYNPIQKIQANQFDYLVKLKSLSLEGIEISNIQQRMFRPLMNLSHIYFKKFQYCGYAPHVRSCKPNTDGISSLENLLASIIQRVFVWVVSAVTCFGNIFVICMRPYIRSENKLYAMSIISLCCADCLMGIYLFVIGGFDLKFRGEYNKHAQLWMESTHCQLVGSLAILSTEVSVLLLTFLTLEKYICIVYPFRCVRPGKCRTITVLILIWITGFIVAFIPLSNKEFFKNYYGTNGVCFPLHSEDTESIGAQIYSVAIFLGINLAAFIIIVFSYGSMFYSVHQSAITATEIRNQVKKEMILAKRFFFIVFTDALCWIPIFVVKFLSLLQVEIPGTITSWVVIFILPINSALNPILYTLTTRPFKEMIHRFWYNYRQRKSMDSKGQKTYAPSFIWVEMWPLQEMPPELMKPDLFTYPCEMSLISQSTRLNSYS
Experiment: OVCAR5 cAMP assay (HTRF), RXFP1 agonist activity
Assay type: cell-based
Conditions: for EC50: OVCAR5 cells, cAMP HTRF, read-out: EC50 (nM), OVCAR 5 cells (cAMP); for Emax: OVCAR-5, maximal cAMP relative to H2-relaxin maximum (100%), read-out: EMax, OVCAR 5 cells (cAMP)
In short: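 OVCAR5 cells (endogenous RXFP1) pretreated 40 min at 37° C with 1 mM IBMX, then exposed to peptides in serum-free medium for 30 min at 37° C. Lysate cAMP read by HTRF; EC50 from variable-slope sigmoidal fit; Emax as % of H2-relaxin maximal cAMP in same run.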

| Compound | EC50 | Emax |
| --- | --- | --- |
| CCCCCCCCCCCCCCCCCCCCCC(=O)N[C@@H](CCC(=O)N[C@@H](CCC(=O)N[C@@H](CCC(=O)NCCOCCOCC(=O)NCCOCCOCC(=O)NCCOCCOCC(=O)NCCCC[C@H](NC(=O)[C@H](CCCCNC(C)=O)NC(=O)[C@H](CCCCN)NC(=O)[C@H](CCCNC(=N)N)NC(=O)C(C)(C)NC(=O)[C@H](CO)NC(=O)[C@H](Cc1c[nH]c2ccccc12)NC(=O)[C@@H](NC(=O)[C@H](CO)NC(=O)[C@H](CCCC)NC(=O)CNC(=O)[C@H](CCC(=O)O)NC(=O)C(C)(C)NC(=O)C(C)(C)NC(=O)[C@@H](NC(=O)[C@H](CCCCNC(C)=O)NC(=O)[C@H](C)NC(=O)[C@H](CCCNC(=N)N)NC(=O)[C@@H](NC(=O)[C@H](CCCCN)NC(=O)[C@H](CCC(=O)O)NC(=O)[C@H](CCCNC(=N)N)NC(=O)CNC(=O)[C@H](CCC(=O)O)NC(=O)[C@H](CC(C)C)NC(C)=O)C(C)C)[C@@H](C)CC)[C@@H](C)O)C(N)=O)C(=O)O)C(=O)O)C(=O)O [compound 173] (Ac-LEGREKVRAK(Ac)I[Aib][Aib]EG[Nle]STWS[Aib]RKK(Ac)K([AEEA-AEEA-AEEA-γGlu-γGlu-γGlu-Docosanoyl])-NH2) | 0.19 nM | 85% |
| CCCCCCCCCCCCCCCC(=O)N[C@@H](CCC(=O)N[C@@H](CCC(=O)N[C@@H](CCC(=O)NCCOCCOCC(=O)NCCOCCOCC(=O)NCCCC[C@H](NC(=O)[C@H](CCCCN)NC(=O)[C@H](CCCNC(=N)N)NC(=O)C(C)(C)NC(=O)[C@H](CO)NC(=O)[C@H](Cc1c[nH]c2ccccc12)NC(=O)[C@@H](NC(=O)[C@H](CO)NC(=O)[C@H](CCCC)NC(=O)CNC(=O)[C@H](CCC(=O)O)NC(=O)C(C)(C)NC(=O)C(C)(C)NC(=O)[C@@H](NC(=O)[C@H](CCCCNC(C)=O)NC(=O)[C@H](C)NC(=O)[C@H](CCCNC(=N)N)NC(=O)[C@@H](NC(=O)[C@H](CCCCN)NC(=O)[C@H](CCC(=O)O)NC(=O)[C@H](CCCNC(=N)N)NC(=O)CNC(=O)[C@H](CCC(=O)O)NC(=O)[C@H](CC(C)C)NC(C)=O)C(C)C)[C@@H](C)CC)[C@@H](C)O)C(N)=O)C(=O)O)C(=O)O)C(=O)O [compound 59] (Ac-LEGREKVRAK(Ac)I[Aib][Aib]EG[Nle]STWS[Aib]RKK([AEEA-AEEA-γGlu-γGlu-γGlu-Palmitoyl])-NH2) |  | 85% |
| CCCCCCCCCCCCCCCC(=O)N[C@@H](CCC(=O)N[C@@H](CCC(=O)N[C@@H](CCC(=O)NCCOCCOCCOCCOCCOCCOCCOCCOCCOCCOCCOCCOCCC(=O)NCCCC[C@H](NC(=O)[C@H](CCCCNC(C)=O)NC(=O)[C@H](CCCCN)NC(=O)[C@H](CCCNC(=N)N)NC(=O)C(C)(C)NC(=O)[C@H](CO)NC(=O)[C@H](Cc1c[nH]c2ccccc12)NC(=O)[C@@H](NC(=O)[C@H](CO)NC(=O)[C@H](CCCC)NC(=O)CNC(=O)[C@H](CCC(=O)O)NC(=O)C(C)(C)NC(=O)C(C)(C)NC(=O)[C@@H](NC(=O)[C@H](CCCCNC(C)=O)NC(=O)[C@H](C)NC(=O)[C@H](CCCNC(=N)N)NC(=O)[C@@H](NC(=O)[C@H](CCCCN)NC(=O)[C@H](CCC(=O)O)NC(=O)[C@H](CCCNC(=N)N)NC(=O)CNC(=O)[C@H](CCC(=O)O)NC(=O)[C@H](CC(C)C)NC(C)=O)C(C)C)[C@@H](C)CC)[C@@H](C)O)C(N)=O)C(=O)O)C(=O)O)C(=O)O [compound 66] (Ac-LEGREKVRAK(Ac)I[Aib][Aib]EG[Nle]STWS[Aib]RKK(Ac)K([PEG12-γGlu-γGlu-γGlu-Palmitoyl])-NH2) |  | 83% |
| CCCCCCCCCCCCCCCCCC(=O)N[C@@H](CCC(=O)N[C@@H](CCC(=O)N[C@@H](CCC(=O)NCCCC[C@H](NC(=O)CCOCCOCCOCCOCCOCCOCCOCCOCCOCCOCCOCCOCCNC(=O)[C@H](CCCCNC(C)=O)NC(=O)[C@H](CCCCN)NC(=O)[C@H](CCCNC(=N)N)NC(=O)C(C)(C)NC(=O)[C@H](CO)NC(=O)[C@H](Cc1c[nH]c2ccccc12)NC(=O)[C@@H](NC(=O)[C@H](CO)NC(=O)[C@H](CCCC)NC(=O)CNC(=O)[C@H](CCC(=O)O)NC(=O)C(C)(C)NC(=O)C(C)(C)NC(=O)[C@@H](NC(=O)[C@H](CCCCNC(C)=O)NC(=O)C(C)(C)NC(=O)[C@H](CCCNC(=N)N)NC(=O)[C@@H](NC(=O)[C@H](CCCCN)NC(=O)[C@H](CCC(=O)O)NC(=O)[C@H](CCCNC(=N)N)NC(=O)CNC(=O)[C@H](CCC(=O)O)NC(=O)[C@H](CC(C)C)NC(C)=O)C(C)C)[C@@H](C)CC)[C@@H](C)O)C(N)=O)C(=O)O)C(=O)O)C(=O)O [compound 36] (Ac-LEGREKVR[Aib]K(Ac)I[Aib][Aib]EG[Nle]STWS[Aib]RKK(Ac)[PEG12]K([γGlu-γGlu-γGlu-Stearoyl])-NH2) |  | 84% |
| CCCCCCCCCCCCCCCC(=O)N[C@@H](CCC(=O)NCCCC[C@H](NC(=O)CC[C@H](NC(=O)CC[C@H](NC(=O)CC[C@H](NC(=O)COCCOCCNC(=O)COCCOCCNC(=O)COCCOCCNC(=O)COCCOCCNC(=O)[C@H](CCCCNC(C)=O)NC(=O)[C@H](CCCCN)NC(=O)[C@H](CCCNC(=N)N)NC(=O)[C@](C)(CCCCN)NC(=O)[C@H](CO)NC(=O)[C@](C)(Cc1ccccc1)NC(=O)[C@@H](NC(=O)[C@H](CO)NC(=O)[C@H](CCCC)NC(=O)CNC(=O)[C@H](CCC(=O)O)NC(=O)C(C)(C)NC(=O)C(C)(C)NC(=O)[C@@H](NC(=O)[C@H](CCCCNC(C)=O)NC(=O)[C@H](C)NC(=O)[C@H](CCCNC(=N)N)NC(=O)[C@@H](NC(=O)[C@H](CCCCN)NC(=O)[C@H](CCC(=O)O)NC(=O)[C@H](CCCNC(=N)N)NC(=O)CNC(=O)[C@H](CCC(=O)O)NC(=O)[C@H](CC(C)C)NC(C)=O)C(C)C)[C@@H](C)CC)[C@@H](C)O)C(=O)O)C(=O)O)C(=O)O)C(N)=O)C(=O)O [compound 152] (Ac-LEGREKVRAK(Ac)I[Aib][Aib]EG[Nle]ST[αMeF]S[αMeK]RKK(Ac)[AEEA][AEEA][AEEA][AEEA][γGlu][γGlu][γGlu]K([γGlu-Palmitoyl])-NH2) |  | 91% |
| CCCCCCCCCCCCCCCC(=O)N[C@@H](CCC(=O)N[C@@H](CCC(=O)N[C@@H](CCC(=O)NCCCC[C@H](NC(=O)[C@H](CCCCN)NC(=O)[C@H](CCCNC(=N)N)NC(=O)C(C)(C)NC(=O)[C@H](CO)NC(=O)[C@H](Cc1c[nH]c2ccccc12)NC(=O)[C@@H](NC(=O)[C@H](CO)NC(=O)[C@H](CCCC)NC(=O)CNC(=O)[C@H](CCC(=O)O)NC(=O)C(C)(C)NC(=O)C(C)(C)NC(=O)[C@@H](NC(=O)[C@H](CCC(N)=O)NC(=O)[C@H](C)NC(=O)[C@H](CCCNC(=N)N)NC(=O)[C@@H](NC(=O)[C@H](CCCCN)NC(=O)[C@H](CCC(=O)O)NC(=O)[C@H](CCCNC(=N)N)NC(=O)CNC(=O)[C@H](CCC(=O)O)NC(=O)[C@H](CC(C)C)NC(C)=O)C(C)C)[C@@H](C)CC)[C@@H](C)O)C(N)=O)C(=O)O)C(=O)O)C(=O)O [compound 8] (Ac-LEGREKVRAQI[Aib][Aib]EG[Nle]STWS[Aib]RKK([γGlu-γGlu-γGlu-Palmitoyl])-NH2) | 26.7 nM | 98% |
| CCCCCCCCCCCCCCCCCC(=O)N[C@@H](CCC(=O)N[C@@H](CCC(=O)N[C@@H](CCC(=O)NCCOCCOCC(=O)NCCOCCOCC(=O)NCCOCCOCC(=O)NCCOCCOCC(=O)NCCCC[C@H](NC(=O)[C@H](CCCCNC(C)=O)NC(=O)[C@H](CCCCN)NC(=O)[C@H](CCCNC(=N)N)NC(=O)C(C)(C)NC(=O)[C@H](CO)NC(=O)[C@H](Cc1c[nH]c2ccccc12)NC(=O)[C@@H](NC(=O)[C@H](CO)NC(=O)[C@H](CCCC)NC(=O)CNC(=O)[C@H](CCC(=O)O)NC(=O)C(C)(C)NC(=O)C(C)(C)NC(=O)[C@@H](NC(=O)[C@H](CCCCNC(C)=O)NC(=O)[C@H](C)NC(=O)[C@H](CCCNC(=N)N)NC(=O)[C@@H](NC(=O)[C@H](CCCCN)NC(=O)[C@H](CCC(=O)O)NC(=O)[C@H](CCCNC(=N)N)NC(=O)CNC(=O)[C@H](CCC(=O)O)NC(=O)[C@H](CC(C)C)NC(C)=O)C(C)C)[C@@H](C)CC)[C@@H](C)O)C(N)=O)C(=O)O)C(=O)O)C(=O)O [compound 90] (Ac-LEGREKVRAK(Ac)I[Aib][Aib]EG[Nle]STWS[Aib]RKK(Ac)K([AEEA-AEEA-AEEA-AEEA-γGlu-γGlu-γGlu-Stearoyl])-NH2) | 0.07 nM | 89% |
